“And” between values parts separate entries of the source, which are not always exact repeats. Equal values may be shown once.
Columns and labels:
Assay type in all cases: cell-based
[1] = target: T1, BRD2 (Homo sapiens, UniProt P25440); experiment: BRD2 levels by Western blot in Jurkat cells; design: endogenous in cells; host or cells: Jurkat; Hep G2; MDA-MB-231; KBM7 (WT, DCAF11 KO, DDB1 KO)
Experimental: (§1) Cells were washed with PBS and lysed in lysis buffer (50 mM Tris-HCl, pH 7.4, 150 mM NaCl, 1% Triton X-100, 1% sodium deoxycholate, 0.1% SDS) with complete protease inhibitor cocktail (Roche, 11836170001) for 30 min on ice. For Ramos cells, cell pellets were lysed in lysis buffer (50 mM Tris-HCl, pH 8, 150 mM NaCl, 1% NP-40, 0.5% sodium deoxycholate) with complete protease inhibitor cocktail. After centrifugation at 16,000 x g, the supernatant was transferred into a new tube and the protein concentration was determined by DC protein assay (BIO-RAD, 5000116). Proteins were separated by SDS-PAGE and transferred to a PVDF membrane (Thermo scientific, 0.45 μm, 88518). For PDEδ, BRD2, GAPDH, BRD4, Vinculin and BTK, the membranes were blocked with Intercept® Blocking Buffer (LI-COR Biosciences, 927-70001) at room temperature for 1 h. The primary antibodies for these proteins were diluted with Intercept® Blocking Buffer (1:500 for PDEδ, 1:3000 for Vinculin, and 1:1000 for other proteins) and incubated with the membranes overnight at 4 °C. Membranes were washed with PBS + 0.1% Tween 20 (PBS-T) five times and incubated with secondary antibodies conjugated to IRDye® Infrared Fluorescent Dyes (1:5000, LI-COR Biosciences) at room temperature for 1 h with protection from light. After washing the membrane, signals were visualized using the ChemiDoc MP Imaging System (BIO-RAD Laboratories). For detection of LC3B, BRD3, BLK, DCAF11, DDB1 RBX1, FIP200, V5- and FLAG-Tag the membranes were blocked with 5% milk in PBS-T at room temperature for 1 h. The primary antibodies for these proteins were diluted in 5% milk in PBS-T buffer (1:200 for BRD3, 1:1000 for other proteins) and incubated with the membranes overnight at 4 °C. Membranes were washed with PBS-T five times and incubated with HRP secondary antibodies (1:1500) at room temperature for 1 h. After washing the membrane, protein detection was performed using Western blotting detection reagent (Thermo Scientific, 34095) and the ChemiDoc MP Imaging System (BIO-RAD). Relative band intensities were quantified using Image Lab (BIO-RAD).

[2] = target: PDEδ (Homo sapiens, UniProt O43924); experiment: PDEδ levels by Western blot in Jurkat cells; design: endogenous in cells; host or cells: Jurkat; details: 6 h; for PDEδ degradation activity compared with degrader 5: 10 μM
PDEδ, sequence (O43924 whole entry): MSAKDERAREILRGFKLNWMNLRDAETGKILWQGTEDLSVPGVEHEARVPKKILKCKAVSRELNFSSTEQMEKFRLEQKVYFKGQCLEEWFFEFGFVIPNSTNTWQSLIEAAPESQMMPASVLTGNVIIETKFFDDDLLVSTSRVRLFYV

[3] = target: T1, BRD2; experiment: BRD2 levels by Western blot in KBM7 cells (WT, DCAF11 knockout, DDB1 knockout); design: endogenous in cells; host or cells: KBM7 (WT, DCAF11 KO, DDB1 KO); details: 9 at 3 μM, 10 at 10 μM, 11 at 10 μM; 6 h
Experimental: as §1
DCAF11- or FIP200 (RB1CC1)-targeting sgRNAs were lentivirally packaged using PEI transfection of Lenti-X cells. The viral supernatant was harvested after 72 h, cleared of cellular debris by filtration through a 0.45-µm PES filter and stored in aliquots at −80 °C. The appropriate amount of viral supernatant was transduced into KBM7 cells (1 × 10^6 cells/mL) via spinfection (2000 rpm, 1 h, 37 °C) with polybrene (8 µg/mL). Two days post transduction, the cells were selected with puromycin (1 µg/mL) for a total of 5 days, after which the knockout pools were validated via western blotting.

[4] = Cell viability assay (CellTiter-Glo) in Jurkat cells; details: human, Jurkat cells
Experimental: (§2) Jurkat cells (3 × 10^3) and Hep G2 cells (3.5 × 10^3) were seeded in 96-well plates in 100 μL culture medium. Cells were treated with compounds dissolved in 50 μl medium at the indicated concentration for 72 h, at the same time, one plate of cells without compounds treatment was used for the cell count at time zero. After adding 40 μl of CellTiter-Glo® reagent (Promega, G7571) to each well for 10 min at room temperature, the luminescence was measured on a Spark® Multimode Microplate Reader (Tecan). The data was analyzed by the GraphPad Prism 9.0.

[5] = test system: Jurkat cells; experiment: as above; details: for Relative cell viability (%): Jurkat cells, 72 h, Fig. 4k; for Cell viability (%) relative to DMSO: individual replicates, Supplementary Fig. 7g
Experimental: as §2

T1 sequence (P25440 whole entry): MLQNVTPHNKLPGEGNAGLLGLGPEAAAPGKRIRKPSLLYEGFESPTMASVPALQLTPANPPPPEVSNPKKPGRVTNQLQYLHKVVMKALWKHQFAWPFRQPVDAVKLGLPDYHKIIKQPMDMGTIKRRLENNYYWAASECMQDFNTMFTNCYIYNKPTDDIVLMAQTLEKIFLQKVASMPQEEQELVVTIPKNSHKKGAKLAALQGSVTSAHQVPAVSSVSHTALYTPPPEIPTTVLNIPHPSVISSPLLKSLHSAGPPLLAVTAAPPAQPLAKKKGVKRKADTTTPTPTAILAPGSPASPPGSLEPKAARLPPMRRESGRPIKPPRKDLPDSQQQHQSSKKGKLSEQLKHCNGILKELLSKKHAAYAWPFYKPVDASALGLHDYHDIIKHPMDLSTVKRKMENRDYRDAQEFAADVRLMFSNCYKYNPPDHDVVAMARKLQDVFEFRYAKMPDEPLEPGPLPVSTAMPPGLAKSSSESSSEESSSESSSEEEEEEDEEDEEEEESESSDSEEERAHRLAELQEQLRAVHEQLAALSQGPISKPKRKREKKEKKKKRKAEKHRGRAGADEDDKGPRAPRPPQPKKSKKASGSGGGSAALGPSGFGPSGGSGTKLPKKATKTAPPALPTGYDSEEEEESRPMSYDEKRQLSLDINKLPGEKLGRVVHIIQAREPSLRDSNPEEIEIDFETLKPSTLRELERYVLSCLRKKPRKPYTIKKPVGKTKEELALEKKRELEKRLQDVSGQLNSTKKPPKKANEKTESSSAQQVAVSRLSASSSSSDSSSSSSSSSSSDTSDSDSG

Compound: Cc1sc2c(c1C)C(c1ccc(Cl)cc1)=NC(CC(=O)NCCOCCOCCOCCOc1c(Br)cc(C=C3C(=O)N(c4ccccc4)c4ccccc43)cc1Br)c1nnc(C)n1-2 (stereo not drawn) [Compound 49]
- remaining activity at 3 µM ([1]; Jurkat, 6 h, 3 μM, 6 h, Fig. 4j, read-out: BRD2/Vinculin intensity (relative to DMSO control group)): 12.6%

Compound: Cc1ccc(-n2nc3c(=O)n(CCCC(=O)NCCc4ccc(C(=O)NCCOCCOCCOCCOc5c(Br)cc(C=C6C(=O)Nc7cc(Br)ccc76)cc5Br)cc4)nc(C)c3c2C)cc1 [Compound 54]
- PDEδ degradation activity compared with degrader 5 [2]: comparable or better degradation activity
- completeness of PDEδ degradation [2]: did not induce complete degradation

Compound: Cc1sc2c(c1C)C(c1ccc(Cl)cc1)=N[C@@H](CC(=O)NCCOCCOCCOCCOc1c(Br)cc(/C=C3\C(=O)Nc4ccc(I)cc43)cc1Br)c1nnc(C)n1-2 [Compound 11]
- BRD2 degradation in DCAF11 knockout (KO1 and KO2) KBM7 cells [3]: abolished
- efficiency of BRD2 degradation, 10 versus iodo analog 11 ([1]; 6 h): comparable efficiency of BRD2 degradation

Compound: Cc1ccc(-n2nc3c(=O)n(CCCC(=O)NCCc4ccc(C(=O)NCCOCCOCCOCCOc5c(Br)cc(/C=C6\C(=O)Nc7ccc(I)cc76)cc5Br)cc4)nc(C)c3c2C)cc1 [Compound 6, (Z)-N-(2-(2-(2-(2-(2,6-dibromo-4-((5-iodo-2-oxoindolin-3-ylidene)methyl)phenoxy)ethoxy)ethoxy)ethoxy)ethyl)-4-(2-(4-(3,4-dimethyl-7-oxo-2-(p-tolyl)-2,7-dihydro-6H-pyrazolo[3,4-d]pyridazin-6-yl)butanamido)ethyl)benzamide]
- remaining activity at 10 µM ([2]; Jurkat, DMSO pretreatment 2 h, then 10 μM, 6h, Fig. 1h, read-out: PDEδ/Vinculin intensity (relative to DMSO control group)): 55.4%

Compound: Cc1ccc(-n2nc3c(=O)n(CCCC(=O)NCCc4ccc(C(=O)NCCOCCOCCOCCOc5c(Br)cc(C=C6C(=O)N(c7ccccc7)c7ccccc76)cc5Br)cc4)nc(C)c3c2C)cc1 [Compound 55]
- PDEδ degradation activity compared with degrader 5 [2]: comparable or better degradation activity
- completeness of PDEδ degradation [2]: did not induce complete degradation

Compound: Cc1sc2c(c1C)C(c1ccc(Cl)cc1)=N[C@@H](CC(=O)OC(C)(C)C)c1nnc(C)n1-2 [JQ1, reference compound]
- viability at 72 h, 10 nmol/L ([4]; concentration 10 nmol/L, individual replicates, Supplementary Fig. 7g, read-out: Cell viability (%) relative to DMSO): 94.3%
- viability at 72 h, 30 nmol/L ([4]; concentration 30 nmol/L, individual replicates, Supplementary Fig. 7g, read-out: Cell viability (%) relative to DMSO): 90.8%
- viability at 72 h, 100 nmol/L ([4]; concentration 100 nmol/L, individual replicates, Supplementary Fig. 7g, read-out: Cell viability (%) relative to DMSO): 82.6%
- viability at 72 h, 300 nmol/L ([4]; concentration 300 nmol/L, individual replicates, Supplementary Fig. 7g, read-out: Cell viability (%) relative to DMSO): 69%
- viability at 72 h, 1000 nmol/L ([4]; concentration 1000 nmol/L, individual replicates, Supplementary Fig. 7g, read-out: Cell viability (%) relative to DMSO): 54.6%
- viability at 72 h, 3000 nmol/L ([4]; concentration 3000 nmol/L, individual replicates, Supplementary Fig. 7g, read-out: Cell viability (%) relative to DMSO): 46%
- viability at 72 h, 10000 nmol/L ([4]; concentration 10000 nmol/L, individual replicates, Supplementary Fig. 7g, read-out: Cell viability (%) relative to DMSO): 46.5%
- viability at 72 h, 30000 nmol/L ([4]; concentration 30000 nmol/L, individual replicates, Supplementary Fig. 7g, read-out: Cell viability (%) relative to DMSO): 40.9%
- viability at 72 h, 0.01 µM ([4]; 72 h, 10 nM, Fig. 4k, read-out: Relative cell viability (%)): 89.4%
- viability at 72 h, 0.03 µM ([4]; 72 h, 30 nM, Fig. 4k, read-out: Relative cell viability (%)): 77.8%
- viability at 72 h, 0.1 µM ([4]; 72 h, 100 nM, Fig. 4k, read-out: Relative cell viability (%)): 52.1%
- viability at 72 h, 0.3 µM ([4]; 72 h, 300 nM, Fig. 4k, read-out: Relative cell viability (%)): 35%
- viability at 72 h, 1 µM ([4]; 72 h, 1000 nM, Fig. 4k, read-out: Relative cell viability (%)): 18.1%
- viability at 72 h, 3 µM ([4]; 72 h, 3000 nM, Fig. 4k, read-out: Relative cell viability (%)): 8.86%
- viability at 72 h, 10 µM ([4]; 72 h, 10000 nM, Fig. 4k, read-out: Relative cell viability (%)): 4.59%
- viability at 72 h, 30 µM ([4]; 72 h, 30000 nM, Fig. 4k, read-out: Relative cell viability (%)): 1.85%
- Relative cell viability (%) ([5]; 10 nM, 0.01 µM): 100.371% and 106.106%
- Relative cell viability (%) ([5]; 30 nM, 0.03 µM): 87.8283% and 96.2473%
- Relative cell viability (%) ([5]; 100 nM, 0.1 µM): 64.4714% and 60.7516%
- Relative cell viability (%) ([5]; 300 nM, 0.3 µM): 45.1617% and 37.3276%
- Relative cell viability (%) ([5]; 1000 nM, 1 µM): 18.9902% and 17.7354%
- Relative cell viability (%) ([5]; 3000 nM, 3 µM): 9.435% and 7.082%
- Relative cell viability (%) ([5]; 10000 nM, 10 µM): 4.364% and 3.464%
- Relative cell viability (%) ([5]; 30000 nM, 30 µM): 1.255% and 1.237%
- Cell viability (%) relative to DMSO ([5]; concentration 10 nmol/L): 103.479% and 107.527%
- Cell viability (%) relative to DMSO ([5]; concentration 30 nmol/L): 101.884% and 107.914%
- Cell viability (%) relative to DMSO ([5]; concentration 100 nmol/L): 89.9727% and 100.534%
- Cell viability (%) relative to DMSO ([5]; concentration 300 nmol/L): 75.4252% and 84.9435%
- Cell viability (%) relative to DMSO ([5]; concentration 1000 nmol/L): 55.019% and 62.5193%
- Cell viability (%) relative to DMSO ([5]; concentration 3000 nmol/L): 46.7418% and 50.7086%
- Cell viability (%) relative to DMSO ([5]; concentration 10000 nmol/L): 42.9072% and 46.8783%
- Cell viability (%) relative to DMSO ([5]; concentration 30000 nmol/L): 37.1426% and 41.0159%
- BRD2 protein levels, ligands alone or in combination ([1]; 3 μM, 4 h): did not reduce BRD2 protein levels

Compound: Cc1ncsc1-c1ccc(CNC(=O)[C@@H]2C[C@@H](O)CN2C(=O)[C@@H](NC(=O)COCCOCCOCCNC(=O)C[C@@H]2N=C(c3ccc(Cl)cc3)c3c(sc(C)c3C)-n3c(C)nnc32)C(C)(C)C)cc1 [MZ1, reference compound]
- BRD2 levels after washout ([1]; 10 μM, 5 h prior to washout): can be washed out

From PMC10689823, “Discovery of a Drug-like, Natural Product-Inspired DCAF11 Ligand Chemotype” (Nature Communications, 2023)
